Assay results from publication PMC10905675, “INX-315, a Selective CDK2 Inhibitor, Induces Cell Cycle Arrest and Senescence in Solid Tumors” (Cancer Discovery, 2023).

Columns and labels:
Assay in all cases: SelectScreen ZLYTE
Type in all cases: biochemical
Conditions in all cases: INX-0315 at 100nM
ABL2 (Arg) = target: T1, ABL2 (Arg) (Homo sapiens, UniProt P42684)
T1 construct: purchased Thermo Fisher Scientific SelectScreen (plus Nanosyn / Reaction Biology for CDK/cyclin lines)
Outline: (§1)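 INX-315, single point 100 nmol/L, 1% DMSO; then 10-pt titration 1 µmol/L → 0.0495 nmol/L. Standard vendor conditions.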

AKT2 (PKB beta) = target: T2, AKT2 (PKB beta) (Homo sapiens, UniProt P31751)
T2 construct: purchased Thermo Fisher Scientific SelectScreen (plus Nanosyn / Reaction Biology for CDK/cyclin lines)
Outline: as §1

AMPK (A2/B1/G2) = target: T3, AMPK (A2/B1/G2) (Homo sapiens, UniProt P54646)
T3 construct: purchased Thermo Fisher Scientific SelectScreen (plus Nanosyn / Reaction Biology for CDK/cyclin lines)
Outline: as §1

AMPK (A2/B2/G3) = target: T4, AMPK (A2/B2/G3) (Homo sapiens, UniProt P54646)
T4 construct: purchased Thermo Fisher Scientific SelectScreen (plus Nanosyn / Reaction Biology for CDK/cyclin lines)
Outline: as §1

AURKC (Aurora C) = target: T5, AURKC (Aurora C) (Homo sapiens, UniProt Q9UQB9)
T5 construct: purchased Thermo Fisher Scientific SelectScreen (plus Nanosyn / Reaction Biology for CDK/cyclin lines)
T5 sequence (Q9UQB9 whole entry): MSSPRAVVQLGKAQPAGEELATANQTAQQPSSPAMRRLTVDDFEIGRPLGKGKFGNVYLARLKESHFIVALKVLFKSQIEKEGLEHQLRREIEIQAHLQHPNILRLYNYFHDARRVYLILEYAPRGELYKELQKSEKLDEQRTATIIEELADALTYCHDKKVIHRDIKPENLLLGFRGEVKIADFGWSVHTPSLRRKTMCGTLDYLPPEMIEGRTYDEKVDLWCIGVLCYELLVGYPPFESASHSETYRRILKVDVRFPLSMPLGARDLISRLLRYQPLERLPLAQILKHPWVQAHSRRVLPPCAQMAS
Outline: as §1

AXL = target: T6, AXL (Homo sapiens, UniProt P30530)
T6 construct: purchased Thermo Fisher Scientific SelectScreen (plus Nanosyn / Reaction Biology for CDK/cyclin lines)
T6 sequence (P30530 26-894): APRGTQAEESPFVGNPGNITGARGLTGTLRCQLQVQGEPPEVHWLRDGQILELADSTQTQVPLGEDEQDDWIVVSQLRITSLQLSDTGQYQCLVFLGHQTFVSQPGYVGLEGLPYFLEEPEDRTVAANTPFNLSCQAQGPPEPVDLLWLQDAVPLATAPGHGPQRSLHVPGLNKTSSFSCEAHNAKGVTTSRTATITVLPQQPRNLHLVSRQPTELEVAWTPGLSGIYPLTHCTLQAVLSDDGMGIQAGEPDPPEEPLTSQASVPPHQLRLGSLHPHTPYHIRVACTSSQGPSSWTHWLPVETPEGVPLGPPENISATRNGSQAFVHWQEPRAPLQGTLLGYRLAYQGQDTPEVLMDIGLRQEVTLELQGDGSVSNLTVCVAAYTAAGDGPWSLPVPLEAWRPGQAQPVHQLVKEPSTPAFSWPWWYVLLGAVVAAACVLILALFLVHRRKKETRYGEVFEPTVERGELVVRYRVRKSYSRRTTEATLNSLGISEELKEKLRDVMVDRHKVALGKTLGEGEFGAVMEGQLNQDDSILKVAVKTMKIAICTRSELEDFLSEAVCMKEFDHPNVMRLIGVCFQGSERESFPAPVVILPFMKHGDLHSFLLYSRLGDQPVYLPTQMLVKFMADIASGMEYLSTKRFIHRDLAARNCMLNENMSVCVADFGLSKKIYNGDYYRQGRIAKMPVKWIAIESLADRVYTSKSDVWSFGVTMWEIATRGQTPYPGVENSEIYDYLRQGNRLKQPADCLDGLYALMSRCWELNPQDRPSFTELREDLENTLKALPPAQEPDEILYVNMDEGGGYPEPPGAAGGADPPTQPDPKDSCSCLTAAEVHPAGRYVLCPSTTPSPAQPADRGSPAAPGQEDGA
Outline: as §1

BLK = target: T7, BLK (Homo sapiens, UniProt P51451)
T7 construct: purchased Thermo Fisher Scientific SelectScreen (plus Nanosyn / Reaction Biology for CDK/cyclin lines)
Outline: as §1

CAMK2A (CaMKII alpha) = target: T8, CAMK2A (CaMKII alpha) (Homo sapiens, UniProt Q9UQM7)
T8 construct: purchased Thermo Fisher Scientific SelectScreen (plus Nanosyn / Reaction Biology for CDK/cyclin lines)
T8 sequence (Q9UQM7 whole entry): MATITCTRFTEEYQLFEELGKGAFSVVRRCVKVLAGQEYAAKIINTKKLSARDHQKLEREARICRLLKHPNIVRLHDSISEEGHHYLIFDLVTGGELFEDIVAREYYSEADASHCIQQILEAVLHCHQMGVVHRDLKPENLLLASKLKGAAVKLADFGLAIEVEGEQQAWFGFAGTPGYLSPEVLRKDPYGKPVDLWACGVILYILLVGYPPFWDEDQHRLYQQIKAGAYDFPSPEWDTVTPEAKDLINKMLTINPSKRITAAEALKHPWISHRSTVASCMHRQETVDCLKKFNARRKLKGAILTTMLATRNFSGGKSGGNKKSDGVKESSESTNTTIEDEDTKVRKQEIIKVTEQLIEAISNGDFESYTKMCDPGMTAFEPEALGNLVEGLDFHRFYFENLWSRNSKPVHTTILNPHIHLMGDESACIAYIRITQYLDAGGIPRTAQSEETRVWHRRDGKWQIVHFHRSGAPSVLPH
Outline: as §1

CDK5/p35 = target: T9, CDK5/p35 (Homo sapiens, UniProt Q00535)
T9 construct: purchased Thermo Fisher Scientific SelectScreen (plus Nanosyn / Reaction Biology for CDK/cyclin lines)
T9 sequence (Q00535 whole entry): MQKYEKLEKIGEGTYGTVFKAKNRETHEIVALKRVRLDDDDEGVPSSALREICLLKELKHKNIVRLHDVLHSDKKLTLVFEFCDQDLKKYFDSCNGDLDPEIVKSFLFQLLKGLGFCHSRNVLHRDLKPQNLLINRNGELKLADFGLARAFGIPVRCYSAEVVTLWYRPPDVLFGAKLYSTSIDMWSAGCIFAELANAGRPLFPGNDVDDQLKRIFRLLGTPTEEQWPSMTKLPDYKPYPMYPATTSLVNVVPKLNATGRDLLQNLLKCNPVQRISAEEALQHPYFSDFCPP
T9 sequence (Q15078 whole entry partner): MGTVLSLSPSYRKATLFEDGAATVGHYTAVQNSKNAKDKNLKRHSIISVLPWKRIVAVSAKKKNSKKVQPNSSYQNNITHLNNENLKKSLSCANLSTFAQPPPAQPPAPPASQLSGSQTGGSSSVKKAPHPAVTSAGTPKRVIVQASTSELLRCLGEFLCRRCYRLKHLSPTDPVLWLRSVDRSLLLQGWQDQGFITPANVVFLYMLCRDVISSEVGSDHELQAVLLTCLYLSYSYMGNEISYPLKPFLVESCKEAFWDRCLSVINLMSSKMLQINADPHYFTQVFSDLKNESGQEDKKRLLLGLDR
Outline: as §1

CSK = target: T10, CSK (Homo sapiens, UniProt P41240)
T10 construct: purchased Thermo Fisher Scientific SelectScreen (plus Nanosyn / Reaction Biology for CDK/cyclin lines)
T10 sequence (P41240 whole entry): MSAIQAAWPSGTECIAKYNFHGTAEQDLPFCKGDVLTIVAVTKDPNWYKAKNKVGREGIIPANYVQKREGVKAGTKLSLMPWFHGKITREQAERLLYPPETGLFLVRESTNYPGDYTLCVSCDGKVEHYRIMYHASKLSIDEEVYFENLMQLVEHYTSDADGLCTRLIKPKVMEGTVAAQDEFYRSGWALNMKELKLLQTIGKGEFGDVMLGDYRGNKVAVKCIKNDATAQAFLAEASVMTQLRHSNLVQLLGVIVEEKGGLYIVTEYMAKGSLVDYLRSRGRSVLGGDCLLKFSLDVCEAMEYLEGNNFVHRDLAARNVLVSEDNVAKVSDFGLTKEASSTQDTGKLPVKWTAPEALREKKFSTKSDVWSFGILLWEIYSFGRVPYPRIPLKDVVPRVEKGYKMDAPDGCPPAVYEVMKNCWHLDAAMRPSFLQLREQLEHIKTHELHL
Outline: as §1

DYRK1A = target: T11, DYRK1A (Homo sapiens, UniProt Q13627)
T11 construct: purchased Thermo Fisher Scientific SelectScreen (plus Nanosyn / Reaction Biology for CDK/cyclin lines)
Outline: as §1

EGFR (ErbB1) = target: T12, EGFR (ErbB1) (Homo sapiens, UniProt P00533)
T12 construct: purchased Thermo Fisher Scientific SelectScreen (plus Nanosyn / Reaction Biology for CDK/cyclin lines)
Outline: as §1

[1] = target: T13, EGFR (ErbB1) T790M C797S L858R (Homo sapiens, UniProt P00533, C797S/L858R/T790M)
T13 construct: purchased Thermo Fisher Scientific SelectScreen (plus Nanosyn / Reaction Biology for CDK/cyclin lines)
Outline: as §1

FGFR1 = target: T14, FGFR1 (Homo sapiens, UniProt P11362)
T14 construct: purchased Thermo Fisher Scientific SelectScreen (plus Nanosyn / Reaction Biology for CDK/cyclin lines)
T14 sequence (P11362 22-822): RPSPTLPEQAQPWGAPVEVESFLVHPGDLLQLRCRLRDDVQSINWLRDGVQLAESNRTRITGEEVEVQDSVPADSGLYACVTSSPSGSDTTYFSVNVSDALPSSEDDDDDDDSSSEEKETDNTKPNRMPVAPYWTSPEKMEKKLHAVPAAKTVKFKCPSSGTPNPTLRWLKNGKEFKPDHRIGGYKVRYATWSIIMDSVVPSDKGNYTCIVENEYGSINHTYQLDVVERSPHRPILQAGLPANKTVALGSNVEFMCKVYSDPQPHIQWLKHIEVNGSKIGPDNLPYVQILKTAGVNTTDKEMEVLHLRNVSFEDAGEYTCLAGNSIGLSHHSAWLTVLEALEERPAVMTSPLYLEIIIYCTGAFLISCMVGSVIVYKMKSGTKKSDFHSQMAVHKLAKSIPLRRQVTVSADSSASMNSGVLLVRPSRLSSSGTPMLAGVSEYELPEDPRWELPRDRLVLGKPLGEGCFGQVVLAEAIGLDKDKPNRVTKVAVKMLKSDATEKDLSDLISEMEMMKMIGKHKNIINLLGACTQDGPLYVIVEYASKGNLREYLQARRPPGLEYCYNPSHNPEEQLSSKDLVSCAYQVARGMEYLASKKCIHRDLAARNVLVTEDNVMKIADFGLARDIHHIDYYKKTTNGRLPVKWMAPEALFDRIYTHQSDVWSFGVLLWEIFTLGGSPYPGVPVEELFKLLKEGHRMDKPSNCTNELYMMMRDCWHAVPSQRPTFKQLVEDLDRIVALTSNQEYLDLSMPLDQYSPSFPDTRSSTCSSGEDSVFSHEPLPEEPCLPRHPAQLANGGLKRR
Outline: as §1

FGFR3 = target: T15, FGFR3 (Homo sapiens, UniProt P22607)
T15 construct: purchased Thermo Fisher Scientific SelectScreen (plus Nanosyn / Reaction Biology for CDK/cyclin lines)
Outline: as §1

GSK3A (GSK3 alpha) = target: T16, GSK3A (GSK3 alpha) (Homo sapiens, UniProt P49840)
T16 construct: purchased Thermo Fisher Scientific SelectScreen (plus Nanosyn / Reaction Biology for CDK/cyclin lines)
Outline: as §1

HIPK1 (Myak) = target: T17, HIPK1 (Myak) (Homo sapiens, UniProt Q86Z02)
T17 construct: purchased Thermo Fisher Scientific SelectScreen (plus Nanosyn / Reaction Biology for CDK/cyclin lines)
Outline: as §1

ITK = target: T18, ITK (Homo sapiens, UniProt Q08881)
T18 construct: purchased Thermo Fisher Scientific SelectScreen (plus Nanosyn / Reaction Biology for CDK/cyclin lines)
Outline: as §1

KIT V559D V654A = target: T19, KIT V559D V654A (Homo sapiens, UniProt P10721, V559D/V654A)
T19 construct: purchased Thermo Fisher Scientific SelectScreen (plus Nanosyn / Reaction Biology for CDK/cyclin lines)
Outline: as §1

LYN B = target: T20, LYN B (Homo sapiens, UniProt P07948)
T20 construct: purchased Thermo Fisher Scientific SelectScreen (plus Nanosyn / Reaction Biology for CDK/cyclin lines)
T20 sequence (P07948 1-491 isoform P07948-2): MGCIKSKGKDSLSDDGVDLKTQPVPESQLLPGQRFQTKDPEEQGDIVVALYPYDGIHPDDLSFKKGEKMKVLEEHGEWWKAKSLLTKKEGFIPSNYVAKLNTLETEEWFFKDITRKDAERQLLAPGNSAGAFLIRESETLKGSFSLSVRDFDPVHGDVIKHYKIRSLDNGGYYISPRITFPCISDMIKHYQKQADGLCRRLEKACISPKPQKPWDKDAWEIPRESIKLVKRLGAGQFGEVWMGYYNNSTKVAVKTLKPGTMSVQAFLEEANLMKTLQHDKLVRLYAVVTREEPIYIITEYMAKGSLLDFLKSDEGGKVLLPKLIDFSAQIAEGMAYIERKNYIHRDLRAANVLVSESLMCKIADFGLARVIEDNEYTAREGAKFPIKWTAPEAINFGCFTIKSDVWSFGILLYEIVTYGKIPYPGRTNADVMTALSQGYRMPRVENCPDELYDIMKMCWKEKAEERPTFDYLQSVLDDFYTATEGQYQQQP
Outline: as §1

MAP2K2 (MEK2) = target: T21, MAP2K2 (MEK2) (Homo sapiens, UniProt P36507)
T21 construct: purchased Thermo Fisher Scientific SelectScreen (plus Nanosyn / Reaction Biology for CDK/cyclin lines)
Outline: as §1

MAP3K9 (MLK1) = target: T22, MAP3K9 (MLK1) (Homo sapiens, UniProt P80192)
T22 construct: purchased Thermo Fisher Scientific SelectScreen (plus Nanosyn / Reaction Biology for CDK/cyclin lines)
Outline: as §1

MAP4K4 (HGK) = target: T23, MAP4K4 (HGK) (Homo sapiens, UniProt O95819)
T23 construct: purchased Thermo Fisher Scientific SelectScreen (plus Nanosyn / Reaction Biology for CDK/cyclin lines)
Outline: as §1

MET M1250T = target: T24, MET M1250T (Homo sapiens, UniProt P08581, M1250T)
T24 construct: purchased Thermo Fisher Scientific SelectScreen (plus Nanosyn / Reaction Biology for CDK/cyclin lines)
Outline: as §1

MINK1 = target: T25, MINK1 (Homo sapiens, UniProt Q8N4C8)
T25 construct: purchased Thermo Fisher Scientific SelectScreen (plus Nanosyn / Reaction Biology for CDK/cyclin lines)
Outline: as §1

PHKG2 = target: T26, PHKG2 (Homo sapiens, UniProt P15735)
T26 construct: purchased Thermo Fisher Scientific SelectScreen (plus Nanosyn / Reaction Biology for CDK/cyclin lines)
Outline: as §1

PIM3 = target: T27, PIM3 (Homo sapiens, UniProt Q86V86)
T27 construct: purchased Thermo Fisher Scientific SelectScreen (plus Nanosyn / Reaction Biology for CDK/cyclin lines)
Outline: as §1

PLK3 = target: T28, PLK3 (Homo sapiens, UniProt Q9H4B4)
T28 construct: purchased Thermo Fisher Scientific SelectScreen (plus Nanosyn / Reaction Biology for CDK/cyclin lines)
Outline: as §1

PRKG1 = target: T29, PRKG1 (Homo sapiens, UniProt Q13976)
T29 construct: purchased Thermo Fisher Scientific SelectScreen (plus Nanosyn / Reaction Biology for CDK/cyclin lines)
Outline: as §1

RET V804E = target: T30, RET V804E (Homo sapiens, UniProt P07949, V804E)
T30 construct: purchased Thermo Fisher Scientific SelectScreen (plus Nanosyn / Reaction Biology for CDK/cyclin lines)
Outline: as §1

ROS1 = target: T31, ROS1 (Homo sapiens, UniProt P08922)
T31 construct: purchased Thermo Fisher Scientific SelectScreen (plus Nanosyn / Reaction Biology for CDK/cyclin lines)
Outline: as §1

RPS6KA3 (RSK2) = target: T32, RPS6KA3 (RSK2) (Homo sapiens, UniProt P51812)
T32 construct: purchased Thermo Fisher Scientific SelectScreen (plus Nanosyn / Reaction Biology for CDK/cyclin lines)
Outline: as §1

RPS6KA5 (MSK1) = target: T33, RPS6KA5 (MSK1) (Homo sapiens, UniProt O75582)
T33 construct: purchased Thermo Fisher Scientific SelectScreen (plus Nanosyn / Reaction Biology for CDK/cyclin lines)
T33 sequence (O75582 whole entry): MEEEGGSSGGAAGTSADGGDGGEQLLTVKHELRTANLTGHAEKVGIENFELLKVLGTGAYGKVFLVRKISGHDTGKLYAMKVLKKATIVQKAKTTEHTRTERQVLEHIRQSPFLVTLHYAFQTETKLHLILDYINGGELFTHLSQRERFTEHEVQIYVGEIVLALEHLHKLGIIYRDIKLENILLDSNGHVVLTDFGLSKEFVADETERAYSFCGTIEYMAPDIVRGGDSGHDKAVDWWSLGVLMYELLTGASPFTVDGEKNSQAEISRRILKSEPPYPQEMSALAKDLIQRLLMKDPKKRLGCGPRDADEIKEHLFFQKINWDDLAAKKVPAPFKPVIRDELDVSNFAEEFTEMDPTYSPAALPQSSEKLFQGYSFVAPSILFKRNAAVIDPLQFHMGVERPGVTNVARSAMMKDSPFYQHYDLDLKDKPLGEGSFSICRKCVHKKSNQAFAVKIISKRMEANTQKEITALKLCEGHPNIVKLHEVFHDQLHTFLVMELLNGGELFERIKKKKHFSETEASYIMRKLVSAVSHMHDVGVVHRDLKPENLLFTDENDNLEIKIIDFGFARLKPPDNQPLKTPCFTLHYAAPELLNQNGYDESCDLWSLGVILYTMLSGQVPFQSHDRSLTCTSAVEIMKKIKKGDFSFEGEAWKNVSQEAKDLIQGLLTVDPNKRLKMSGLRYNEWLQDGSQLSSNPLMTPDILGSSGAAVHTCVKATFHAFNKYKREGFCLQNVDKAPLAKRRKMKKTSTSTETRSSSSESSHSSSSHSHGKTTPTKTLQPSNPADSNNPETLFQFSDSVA
Outline: as §1

SGK (SGK1) = target: T34, SGK (SGK1) (Homo sapiens, UniProt O00141)
T34 construct: purchased Thermo Fisher Scientific SelectScreen (plus Nanosyn / Reaction Biology for CDK/cyclin lines)
Outline: as §1

SNF1LK2 = target: T35, SNF1LK2 (Homo sapiens, UniProt Q9H0K1)
T35 construct: purchased Thermo Fisher Scientific SelectScreen (plus Nanosyn / Reaction Biology for CDK/cyclin lines)
Outline: as §1

TEK (Tie2) = target: T36, TEK (Tie2) (Homo sapiens, UniProt Q02763)
T36 construct: purchased Thermo Fisher Scientific SelectScreen (plus Nanosyn / Reaction Biology for CDK/cyclin lines)
Outline: as §1

TYRO3 (RSE) = target: T37, TYRO3 (RSE) (Homo sapiens, UniProt Q06418)
T37 construct: purchased Thermo Fisher Scientific SelectScreen (plus Nanosyn / Reaction Biology for CDK/cyclin lines)
Outline: as §1

SMILES: NS(=O)(=O)c1ccc(Nc2ncc3cc4n(c3n2)C2(CCCCC2)C(=O)NN4)cc1 [INX-315]
- inhibition at 0.1 µM (ABL2 (Arg)): 14%
- inhibition at 0.1 µM (AKT2 (PKB beta)): 1%
- inhibition at 0.1 µM (AMPK (A2/B1/G2)): 20%
- inhibition at 0.1 µM (AMPK (A2/B2/G3)): 32%
- inhibition at 0.1 µM (AURKC (Aurora C)): 53%
- inhibition at 0.1 µM (AXL): 17%
- inhibition at 0.1 µM (BLK): 11%
- inhibition at 0.1 µM (CAMK2A (CaMKII alpha)): -4%
- inhibition at 0.1 µM (CDK5/p35): 87%
- inhibition at 0.1 µM (CSK): 1%
- inhibition at 0.1 µM (DYRK1A): 1%
- inhibition at 0.1 µM (EGFR (ErbB1)): 4%
- inhibition at 0.1 µM [1]: 3%
- inhibition at 0.1 µM (FGFR1): 4%
- inhibition at 0.1 µM (FGFR3): -3%
- inhibition at 0.1 µM (GSK3A (GSK3 alpha)): 11%
- inhibition at 0.1 µM (HIPK1 (Myak)): 6%
- inhibition at 0.1 µM (ITK): 5%
- inhibition at 0.1 µM (KIT V559D V654A): 7%
- inhibition at 0.1 µM (LYN B): 17%
- inhibition at 0.1 µM (MAP2K2 (MEK2)): 17%
- inhibition at 0.1 µM (MAP3K9 (MLK1)): 22%
- inhibition at 0.1 µM (MAP4K4 (HGK)): 23%
- inhibition at 0.1 µM (MET M1250T): 3%
- inhibition at 0.1 µM (MINK1): 15%
- inhibition at 0.1 µM (PHKG2): 2%
- inhibition at 0.1 µM (PIM3): 8%
- inhibition at 0.1 µM (PLK3): -2%
- inhibition at 0.1 µM (PRKG1): 7%
- inhibition at 0.1 µM (RET V804E): 13%
- inhibition at 0.1 µM (ROS1): 19%
- inhibition at 0.1 µM (RPS6KA3 (RSK2)): 27%
- inhibition at 0.1 µM (RPS6KA5 (MSK1)): 8%
- inhibition at 0.1 µM (SGK (SGK1)): 6%
- inhibition at 0.1 µM (SNF1LK2): 18%
- inhibition at 0.1 µM (TEK (Tie2)): -1%
- inhibition at 0.1 µM (TYRO3 (RSE)): 14%
